This is an account of results in a melting point compilation (Tetko et al.; mined from patent text by program, amines drawn as free bases though some values may be those of a salt).

Where only a bound is given, the exact number is not on record here.

As usually defined, the melting point is the temperature, or range, at which the solid turns liquid. Take `COc1ccc(C(Nc2ccc(C(=N)NO)cc2)C(=O)O)c(OCCO)c1` (racemic): the melting point came out at 205 °C.
Molecule `O=C(CNC(=O)c1ccc(C(=O)C=C(c2cc(Cl)cc(C(F)(F)F)c2)C(F)(F)F)c2ccccc12)NCC(F)(F)F` returned a melting point of 174 to 177 °C.
Next, `Cc1cc(O)c(C)cc1O`: 60 to 62 °C.
Next, `CC(C)(C)OC(=O)NNC1CCN(C(=O)OC(C)(C)C)CC1`: 112 to 115 °C; `NC(=O)c1nc(-c2cccc(O)c2)nc2c1[nH]c(=O)n2-c1ccccc1Oc1ccccc1`: 329 to 331 °C.
As for `COc1ccc(-c2cccc(OC3SCC(O)C(O)C3O)c2)cn1` (stereo unspecified), the melting point is 174 °C.
Next, `COc1cc2c(Nc3cccc(Cl)c3F)ncnc2cc1OC1CCN(C(=O)C2(O)CC2)CC1`: 177 to 178 °C.
With `COc1cc(OC)c2c(=O)[nH]c(-c3cccc(-c4ccc(S(C)=O)s4)c3)nc2c1` (stereo unspecified) the figure was 289 to 290 °C; with `CCOC(=O)C1COc2cc(C=O)c(Cl)c(Cl)c2O1` (stereo unspecified), 101 to 102 °C.
For the molecule `CN1OC(COCc2ccc(Cl)cc2)CC1(Cn1ccnc1)c1ccc(Cl)cc1` (stereo unspecified), the melting point fell in the range of 97 to 100 °C.
With `COc1cccc(Cc2nc3n(-c4c(Cl)cc(Cl)cc4Cl)[nH]c(SC)c-3c(=O)n2)c1` the figure was 245 to 248 °C.
Regarding `CN1Cc2cscc2Nc2cc(Cl)c(Cl)cc21`, the melting point was 92 to 93 °C.
`COc1cc2c(Nc3ccc(Sc4nccn4C)c(Cl)c3)c(C#N)cnc2cc1-c1ccc(CN2CCOCC2)c(CN2CCOCC2)c1` returned a melting point of 228 to 230 °C.
With `COC(=O)c1nc(Cl)c(F)c(N)c1Cl` the figure was 128 to 131 °C; with `O=C(c1ccc(OCC2CC2)c2oc3ccccc3c12)[NH+]([O-])c1c(Cl)cncc1Cl` (stereo unspecified), 263 to 265 °C.
With `COc1ccc2c(c1)CCC[C@H]2NC(=O)c1cccc(Cl)c1O` the figure was 111 to 113 °C; with `CS(=O)(=O)c1ncc(OCc2ccccc2)cn1`, 100 to 102 °C.
`CN(C)C(=O)N1CCc2ccc(Nc3nc4c(-c5cc(Cl)ccc5OCC(F)F)cccn4n3)cc2CC1` came in with a melting point of 98 to 99 °C.
For `CCOc1cccc(OCC)c1NC(=O)Cc1c(-c2ccccc2OC)c2cc(Cl)ccc2n1C`, the melting point was in the range of 180 to 183 °C.
With `O=C(CCNC(=O)OCc1ccccc1)NCCSC(=O)OCc1ccccc1` the figure was 121 to 122 °C; with `CCSC1CCC2C3CCC4=CC(=O)C=CC4(C)C3(F)C(O)CC12C` (stereo unspecified), 196 to 197 °C.
Next, `CCOC(CNC(=S)Nc1cccc2nc(C)ccc12)OCC`: 181 to 185 °C.
With `CC(C)(C)CC(C)(C)c1ccc(Oc2cc3nc(-c4ccco4)oc3cc2[N+](=O)[O-])cc1` the figure was 146 to 148 °C; with `CC1CN(CCCCC(c2ccc(F)cc2)c2ccc(F)cc2)CCN1CC(=O)Nc1c(Cl)cc(NC(N)=O)cc1Cl` (stereo unspecified), 120 °C; with `Cc1sc(S(=O)(=O)NC(C)(C)CO)cc1NC(=O)c1cnn2c(C(F)F)cc(-c3ccc(C(F)(F)F)cc3)nc12`, 180 °C.
The molecule `CNC(=S)NS(=O)(=O)c1cc2c(cc1OC)OC(C)(C)C(NC(=O)c1cc(Cl)ccc1OC)C2` (stereo unspecified) showed a melting point of 234 to 235 °C.
With `CN(C)Cc1ccc(-c2cccc(-c3ccnc4c(C(=O)c5cccs5)cnn34)c2)cc1` the figure was 192 to 195 °C; with `CN(c1ccccc1)c1ncccc1NC(=O)c1ccccc1Cl`, 145 to 146 °C.
Next, `C[C@H]1[C@@H](CO)CCN1c1ccc(C#N)c2ccccc12`: 158 to 159 °C.
Next, `CC(=O)c1ccc(-n2c(-c3sc(NC(=O)c4ccccc4)nc3-c3ccccc3)nc3ccccc3c2=O)cc1`: 250 to 252 °C; `CCOc1ccc2c(c1)C(c1ccccc1)C(=O)N2` (stereo unspecified): 125 to 130 °C.
The molecule `CSC(=S)Nc1ccc(OCc2nc3ccccc3s2)cc1C` gave a melting point of 133 to 135 °C.
Next, `COc1ccc(-c2ccc(-c3nc(-c4ccc(C(F)(F)F)cc4)oc3C)cc2)cc1`: 167 to 168 °C.
As to `O=C(O)C(=O)c1ccc(OCCCCCCc2cccc(O)c2O)cc1`, the melting point was in the range of 127 to 130 °C.
With `Cc1oc(-c2ccccc2)nc1COc1nn(Cc2ccc(Oc3ccccc3)cc2)cc1C=O` the figure was 129 to 130 °C; with `CSc1nn(C(C)(C)C)c(=O)c(Cl)c1C1CCC(C(C)(C)C)CC1` (stereo unspecified), 96 °C; with `CCCCCCOc1ccc2c(CBr)c(OCCCCCC)ccc2c1CBr`, 110 to 112 °C.
The molecule `O=c1[nH]c(COc2ccc(Cl)cc2)nc2nccnc12` had a melting point of 267 to 269 °C.
In turn, `CN(C)C(=O)Oc1cccc2c1CC[C@H]1[C@H]2CCN1CCC1CCCCC1` gave a melting point of 110 to 112 °C.
In the case of `Cn1c(=O)c2c(ncn2CCCN2CCC(NC(=O)c3ccc(F)cc3)CC2)n(C)c1=O`, the melting point fell in the range of 192 to 193 °C.
With `C#CCN1CCN(C2=Nc3cc(Cl)ccc3Nc3ccccc32)CC1` the figure was 138 to 140 °C; with `CC1CC(O)=CC(=O)O1` (stereo unspecified), 103 to 104 °C.
Molecule `Oc1ccc(-c2c3ccccc3c(Cl)c3sc4ccccc4c23)cc1` registered a melting point of 193 to 195 °C.
Next, `CCCC(C)(Oc1ccc(CC(=O)Nc2cc(C)cc(C)c2)cc1)C(=O)O` (stereo unspecified): 145 to 147 °C; `O=S(=O)(Cl)c1cccc2c1COC2`: 40 to 43 °C.
Next, `COc1ccc2cc(S(=O)(=O)Nc3cccc(Cl)c3C)cc(S(=O)(=O)Nc3cccc(Cl)c3C)c2c1`: 166 to 168 °C; `C#Cc1ccnc(-c2cc(N)c(C#Cc3ccc(C(C)=S)cc3)cc2[N+](=O)[O-])c1`: 185 to 188 °C; `COc1cc2c(=O)c(C(N)=O)c[nH]c2cc1F`: more than 300 °C.
With `COc1ccc(/C=C(\C#N)c2ccccc2Cl)cc1OC1CCCC1` the figure was 94 to 95 °C.
For the molecule `COC(=O)CC1CCN(C(=O)c2cnc(-c3ccc(C(=N)NC(=O)OC)cc3)nc2OC)CC1`, the melting point lay within 193 to 195 °C.
Consider `CCCOc1ccc(S(=O)(=O)N2CCN(C(C)=O)CC2)c(-c2nc3cc(N)c(N)cc3c(=O)[nH]2)c1`, for which the melting point lay within 177 to 180 °C.
Next, `CCCCCCN1N=C(c2ccc(F)cc2)c2cc(F)ccc2CS1(=O)=O`: 93 to 96 °C; `COc1cc(OC)nc(Oc2ccc(N)nc2C(=O)ON=C(C)C)n1`: 210 to 214 °C.
In turn, `CCNc1ccc(S(=O)c2ccccc2)cc1[N+](=O)[O-]` (stereo unspecified) came in with a melting point of 122 to 124 °C.
Next, `CCOC(=O)c1ccc(Nc2ncccc2NS(=O)(=O)c2ccc(OC)cc2)cc1`: 172 to 173 °C; `COc1ccc(OC(=O)Nc2cc(C(=O)O)cc(C(=O)O)c2)cc1`: more than 300 °C.
Next, `CCCCCCCC(=O)OCc1ccccc1-c1nc(-c2cccc(OCC)c2)n[nH]1`: 87 to 89 °C; `C#CCN(Cc1ccc2nc(NC(=O)C(C)(C)C)[nH]c(=O)c2c1)c1ccc(C#N)cc1`: 183 to 186 °C.
Next, `CCC(=O)c1cccc(S(N)(=O)=O)c1`: 152 to 153 °C; `Cc1c(CC(=O)O)c2cc(OCc3ccccc3)ccc2n1Cc1ccc(Cl)cc1`: 140 to 142 °C.
`COC(=O)c1ccc(C#CCc2cccc3c2OCCC3(C)C)cc1O` yielded a melting point of 92 to 93 °C.
Next, `CCN(C)c1nsc(NC(=O)N(C)C)c1C#N`: 115 to 130 °C.
`O=C(Nc1ccccc1)c1cc(Br)ccc1O`: the melting point fell in the range of 229 to 230 °C.
`COc1ccc(Nc2ccc(C)cc2)cc1` had a melting point of 81 to 82 °C.
Next, `O=S(=O)(OS(=O)(=O)C1CCCCC1)C1CCCCC1`: 97 to 100 °C; `COc1cc2ncc(OC3CCC(OC)CC3)nc2cc1OC` (stereo unspecified): 85 to 90 °C.
With `COc1ccccc1C(Cn1ccnc1)S(=O)(=O)c1ccc(C(=O)O)cc1` (stereo unspecified) the figure was 134 to 138 °C; with `c1c(N2CCCC2)nc(N2CCCC2)nc1N1CCN(CCN2CCNCC2)CC1`, 148 to 149 °C; with `CC(=O)N1CCCc2ccc(S(=O)(=O)C[N+](=O)[O-])cc21`, 155 °C.
Next, `C[C@@](O)(CO)COc1ccc(Br)cc1`: 90 °C; `NS(=O)(=O)c1ccc(NC(=O)[C@@H]2CCCN2C(=O)OCc2ccccc2)cc1`: 165 to 166 °C; `CSc1nnc(-c2ccc(Cl)nc2)s1`: 136 °C.
Turning to `c1ccc(N2CCN(c3nc4cccc5c4n3CCC5)CC2)cc1`, the melting point is 168 to 169 °C.
Consider `N#Cc1ccc2[nH]c(O)c(-c3ccc(CN4CCOCC4)cn3)c2c1`, for which the melting point was in the range of 228 to 230 °C.
`NC(=O)N(c1ccc(F)cc1)c1ccc(F)cc1`: the melting point was in the range of 150 to 153 °C.
For `COC(=O)Cc1ccc(C(F)(F)F)cc1NC(C)=O`, the melting point lay in the range of 92 to 94 °C.
Next, `O=C1CC2Sc3nc(=O)c4ccccc4n3C2(c2ccc(Cl)cc2)O1` (stereo unspecified): 215 to 220 °C.
With `COc1ccc2c(c1)C(=O)c1c-2c(Cl)nc2ccccc12` the figure was 227 to 228 °C.
`Cc1cc(-c2nc3cccnn3c2-c2ccnc(NC(=O)c3ccccn3)c2)ccc1F` came in with a melting point of 234 to 235 °C.
As for `Cn1cc(-c2ccccc2)c(=O)c(-c2cccc(-c3ccccc3)c2)c1`, the melting point was 186 to 190 °C.
With `CCn1cc(C(=O)O)c(=O)c2cc(C=NO)sc21` the figure was 315 to 317 °C; with `CCCCCCCCCCCCCCCCSCC(CNS(=O)(=O)CCCCl)NC(C)=O` (stereo unspecified), 86 to 88 °C.
Take `COc1ccc(CC2CCC3=C(CCC(=O)N3)C2)cc1` (stereo unspecified): the melting point lay in the range of 176 to 177 °C.
The molecule `CN(CCCNC1=CC(=O)c2sc(C(=O)N3CCOCC3)nc2C1=O)CCCNC1=CC(=O)c2sc(C(=O)N3CCOCC3)nc2C1=O` came in with a melting point of 207 to 208 °C.
`CS(=O)(=O)c1ccc(C(CC2CCCC2)C(=O)Nc2nccs2)cc1C#N` (stereo unspecified) gave a melting point of 145 to 148 °C.
The molecule `CCCCOc1ccc(S(=O)(=O)C2(C(=O)O)CCN(Cc3ccc(F)cc3)CC2)cc1` came in with a melting point of 112 °C.
